Patent publication US9187428B2, “Substituted dicyanopyridines and use thereof” (Bayer Intellectual Property GmbH, priority 2010, dated 2015)
Where a name gives a salt, the structure may show the parent alone.

Experiments:
Format in all cases: cell-based
adenosine A2b receptor = adenosine A2b receptor (Homo sapiens (Human), UniProt P29275); assay: Indirect determination of adenosine agonism by gene expression (luciferase reporter), A2b cells; conditions: CHO cells stably transfected with adenosine A2b receptor, 50% of maximum stimulation
Description: (§1) B-1. Indirect Determination of the Adenosine Agonism by Way of Gene Expression
(§2) Cells of the CHO (Chinese Hamster Ovary) permanent line are transfected stably with the cDNA for the adenosine receptor subtypes A1, A2a and A2b. The adenosine A1 receptors are coupled to the adenylate cyclase by way of Gi proteins, while the adenosine A2a and A2b receptors are coupled by way of Gs proteins. In correspondence with this, the formation of cAMP in the cell is inhibited or stimulated, respectively. After that, expression of the luciferase is modulated by way of a cAMP-dependent promoter. The luciferase test is optimized, with the aim of high sensitivity and reproducibility, low variance and good suitability for implementation on a robot system, by varying several test parameters, such as cell density, duration of the growth phase and the test incubation, forskolin concentration and medium composition. The following test protocol is used for pharmacologically characterizing cells and for the robot-assisted substance screening:
(§3) The stock cultures are grown, at 37° C. and under 5% CO2, in DMEM/F12 medium containing 10% FCS (fetal calf serum) and in each case split 1:10 after 2-3 days. Test cultures are seeded in 384-well plates with 2000 cells per well and grown at 37° C. for approx. 48 hours. The medium is then replaced with a physiological sodium chloride solution (130 mM sodium chloride, 5 mM potassium chloride, 2 mM calcium chloride, 20 mM HEPES, 1 mM magnesium chloride hexahydrate, 5 mM sodium bicarbonate, pH 7.4). The substances to be tested, which are dissolved in DMSO, are pipetted into the test cultures (maximum final concentration of DMSO in the test mixture: 0.5%) in a dilution series of from 5×10^−11 M to 3×10^−6 M (final concentration). 10 minutes later, forskolin is added to the A1 cells and all the cultures are subsequently incubated at 37° C. for four hours. After that, 35 μl of a solution which is composed of 50% lysis reagent (30 mM disodium hydrogenphosphate, 10% glycerol, 3% TritonX100, 25 mM TrisHCl, 2 mM dithiotreitol (DTT), pH 7.8) and 50% luciferase substrate solution (2.5 mM ATP, 0.5 mM luciferin, 0.1 mM coenzyme A, 10 mM tricine, 1.35 mM magnesium sulfate, 15 mM DTT, pH 7.8) are added to the test cultures, which are shaken for approx. 1 minute and the luciferase activity is measured using a camera system. The EC50 values are determined, i.e., the concentrations at which 50% of the luciferase response is inhibited in the case of the A1 cell, and, respectively, 50% of the maximum stimulation with the corresponding substance is achieved in the case of the A2b and A2a cells. […] Pharmacol., 357, 1-9 (1998)].
(§4) Table A below lists the EC50 values of representative working examples for the receptor stimulation on adenosine A1, A2a and A2b receptor subtypes: […]

adenosine A2a receptor = adenosine A2a receptor (Homo sapiens (Human), UniProt P29274); assay: Indirect determination of adenosine agonism by gene expression (luciferase reporter), A2a cells; conditions: CHO cells stably transfected with adenosine A2a receptor, 50% of maximum stimulation
Description: as §1, §2, §3, §4

adenosine A1 receptor = adenosine A1 receptor (Homo sapiens (Human), UniProt P30542); assay: Indirect determination of adenosine agonism by gene expression (luciferase reporter), A1 cells; conditions: CHO cells stably transfected with adenosine A1 receptor; 1 μM forskolin; 50% inhibition of luciferase response
Description: as §1, §2, §3, §4

Chain of adenosine A2a receptor (P29274 whole entry): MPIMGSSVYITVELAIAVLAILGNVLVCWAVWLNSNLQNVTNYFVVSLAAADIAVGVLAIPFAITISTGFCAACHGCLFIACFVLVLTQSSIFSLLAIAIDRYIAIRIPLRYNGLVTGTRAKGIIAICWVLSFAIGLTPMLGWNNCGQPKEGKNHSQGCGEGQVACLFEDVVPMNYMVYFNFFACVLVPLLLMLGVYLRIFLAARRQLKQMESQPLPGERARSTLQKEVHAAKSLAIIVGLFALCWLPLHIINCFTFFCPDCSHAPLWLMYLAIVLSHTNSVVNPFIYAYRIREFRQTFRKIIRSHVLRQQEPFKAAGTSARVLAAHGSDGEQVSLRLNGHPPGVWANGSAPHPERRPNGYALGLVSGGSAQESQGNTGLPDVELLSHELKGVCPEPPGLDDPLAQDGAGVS
Chain of adenosine A2b receptor (P29275 whole entry): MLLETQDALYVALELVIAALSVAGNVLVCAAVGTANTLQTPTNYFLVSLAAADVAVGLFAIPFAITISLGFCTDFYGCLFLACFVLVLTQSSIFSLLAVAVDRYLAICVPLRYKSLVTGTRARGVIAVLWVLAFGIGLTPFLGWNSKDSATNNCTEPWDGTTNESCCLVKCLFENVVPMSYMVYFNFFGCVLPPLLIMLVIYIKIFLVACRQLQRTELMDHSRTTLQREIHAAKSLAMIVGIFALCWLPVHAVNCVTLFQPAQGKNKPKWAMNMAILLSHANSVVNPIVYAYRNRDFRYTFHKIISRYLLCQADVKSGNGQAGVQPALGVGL
Chain of adenosine A1 receptor (P30542 whole entry): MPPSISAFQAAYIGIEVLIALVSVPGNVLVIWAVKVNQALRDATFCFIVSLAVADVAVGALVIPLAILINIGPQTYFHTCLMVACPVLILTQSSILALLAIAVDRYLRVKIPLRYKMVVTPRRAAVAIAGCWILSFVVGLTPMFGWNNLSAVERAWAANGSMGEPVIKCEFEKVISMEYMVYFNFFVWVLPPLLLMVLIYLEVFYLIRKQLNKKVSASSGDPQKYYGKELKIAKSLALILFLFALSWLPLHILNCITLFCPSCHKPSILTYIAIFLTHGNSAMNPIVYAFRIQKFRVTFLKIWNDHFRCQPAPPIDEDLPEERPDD

| EC50 (adenosine A2b receptor) [nM] | EC50 (adenosine A2a receptor) [nM] | Compound | EC50 (adenosine A1 receptor) [nM] |
| --- | --- | --- | --- |
| 600 | 1540 | CCNC(=O)c1cccc(CSc2nc(N3CCCC3)c(C#N)c(-c3ccc(OCCO)cc3)c2C#N)c1 [Example 98, 3-[({3,5-Dicyano-4-[4-(2-hydroxyethoxy)phenyl]-6-pyrrolidin-1-ylpyridin-2-yl}sulfanyl)methyl]-N-ethylbenzenecarboxamide] | 0.3 |
| 425 | 781 | CNC(=O)c1cc(CSc2nc(N)c(C#N)c(-c3ccc(OS(=O)(=O)N(C)C)cc3)c2C#N)ccn1 [Example 46] | 0.04 |
| 1450 | 272 | CNC(=O)c1cc(CSc2nc(N3CC(O)C3)c(C#N)c(-c3ccccc3)c2C#N)ccn1 [Example 70, 4-({[3,5-Dicyano-6-(3-hydroxyazetidin-1-yl)-4-phenylpyridin-2-yl]sulfanyl}methyl)-N-methylpyridine-2-carboxamide] | 0.2 |
| 32 | 460 | CNC(=O)c1cc(CSc2nc(N)c(C#N)c(-c3ccc(OCC(C)(C)O)cc3)c2C#N)ccn1 [Example 7] | 0.1 |
| 71 | – | CNC(=O)c1cc(CSc2nc(N)c(C#N)c(-c3ccc4c(c3)OCCO4)c2C#N)ccn1 [Example 6] | 0.06 |
| – | – | CNC(=O)c1cc(CSc2nc(N)c(C#N)c(-c3ccc(F)c(OC)c3)c2C#N)ccn1 [Example 27] | 0.3 |
| 243 | 65 | CCOc1ccc(-c2c(C#N)c(N)nc(SCc3ccnc(C(=O)NC)c3)c2C#N)cc1 [Example 26] | 0.2 |
| – | – | CNC(=O)c1cc(CSc2nc(N)c(C#N)c(-c3ccc(F)cc3)c2C#N)ccn1 [Example 2] | 0.3 |
| 268 | 402 | CNC(=O)c1cc(CSc2nc(N)c(C#N)c(-c3ccc(OCCNC(=O)[C@H](C)N)cc3)c2C#N)ccn1 [Example 55, 4-{[(4-{4-[2-(L-Alanylamino)ethoxy]phenyl}-6-amino-3,5-dicyanopyridin-2-yl)sulfanyl]methyl}-N-methylpyridine-2-carboxamide trifluoroacetate] | 0.4 |
| 175 | 1010 | CNC(=O)c1cc(CSc2nc(N(C)CCO)c(C#N)c(-c3ccccc3)c2C#N)ccn1 [Example 75, 4-[({3,5-Dicyano-6-[(2-hydroxyethyl)(methyl)amino]-4-phenylpyridin-2-yl}sulfanyl)methyl]-N-methylpyridine-2-carboxamide] | 0.2 |
| – | – | CNC(=O)c1cc(CSc2nc(NCCO)c(C#N)c(-c3ccc(OC)cc3)c2C#N)ccn1 [Example 84] | 0.4 |
| – | – | CNC(=O)c1cc(CSc2nc(N)c(C#N)c(-c3cc(F)cc(F)c3)c2C#N)ccn1 [Example 51] | 0.2 |
| – | – | N#Cc1c(N)nc(SCc2cccc(C(=O)O)c2)c(C#N)c1-c1ccc(F)cc1 [Example 14, 3-({[6-amino-3,5-dicyano-4-(4-fluorophenyl)pyridin-2-yl]sulfanyl}methyl)-benzenecarboxylic acid] | 3.5 |
| – | – | CNC(=O)c1cc(CSc2nc(N3CC(O)C3)c(C#N)c(-c3ccc(OC)cc3)c2C#N)ccn1 [Example 72] | 0.5 |
| 163 | 440 | N#Cc1c(N)nc(SCc2cccc(C(=O)NCCN)c2)c(C#N)c1-c1ccccc1 [Example 101, 3-{[(6-Amino-3,5-dicyano-4-phenylpyridin-2-yl)sulfanyl]methyl}-N-(2-aminoethyl)benzenecarboxamide hydrochloride] | 0.2 |
| 393 | 355 | CNC(=O)c1cc(CSc2nc(NCCO)c(C#N)c(-c3ccc(OCCO)nc3)c2C#N)ccn1 [Example 78] | 0.1 |
| – | – | CNC(=O)c1cc(COc2nc(N3CC(O)C3)c(C#N)c(-c3ccccc3)c2C#N)ccn1 [Example 93, 4-({[3,5-Dicyano-6-(3-hydroxyazetidin-1-yl)-4-phenylpyridin-2-yl]oxy}methyl)-N-methylpyridine-2-carboxamide] | 0.9 |

| EC50 (adenosine A2b receptor) [nM] | EC50 (adenosine A2a receptor) [nM] | Compound | EC50 (adenosine A1 receptor) [nM] |
| --- | --- | --- | --- |
| 169 | 114 | CNC(=O)c1cc(CSc2nc(N)c(C#N)c(-c3ccc(OCCN)cc3)c2C#N)ccn1 [Example 54, 4-[({6-Amino-4-[4-(2-aminoethoxy)phenyl]-3,5-dicyanopyridin-2-yl}sulfanyl)methyl]-N-methylpyridine-2-carboxamide trifluoroacetate] | 0.04 |
| – | – | CNC(=O)c1cc(CSc2nc(NCC(O)C(F)(F)F)c(C#N)c(-c3ccccc3)c2C#N)ccn1 (stereo not shown) [Example 87] | 0.6 |
| – | – | CNC(=O)c1cc(CSc2nc(N)c(C#N)c(-c3ccc(OC)cc3OC)c2C#N)ccn1 [Example 44] | 0.4 |
| – | – | N#Cc1cnc(SCc2cccc(C(=O)NCCO)c2)c(C#N)c1-c1ccccc1 [Example 66, 3-{[(3,5-Dicyano-4-phenylpyridin-2-yl)sulfanyl]methyl}-N-(2-hydroxyethyl)benzenecarboxamide] | 1.3 |
| 2120 | – | CNC(=O)c1cc(CSc2ncc(C#N)c(-c3ccccc3)c2C#N)ccn1 [Example 32] | 0.4 |
| 106 | – | N#Cc1cnc(SCc2cccc(C(=O)O)c2)c(C#N)c1-c1ccccc1 [Example 15] | 0.8 |
| – | – | CNC(=O)c1cc(CSc2nc(N)c(C#N)c(-c3cccc(OCCO)c3)c2C#N)ccn1 [Example 29] | 0.5 |
| 571 | – | N#Cc1cnc(SCc2cccc(C(N)=O)c2)c(C#N)c1-c1ccccc1 [Example 65, 3-{[(3,5-Dicyano-4-phenylpyridin-2-yl)sulfanyl]methyl}benzenecarboxamide] | 3.3 |
| – | – | CCCOc1cccc(-c2c(C#N)c(N)nc(SCc3ccnc(C(=O)NC)c3)c2C#N)c1 [Example 49] | 0.3 |
| – | – | CNC(=O)c1cccc(CSc2nc(N3CC[C@@H](O)C3)c(C#N)c(-c3ccc(OCCO)cc3)c2C#N)c1 [Example 94, 3-[({3,5-Dicyano-4-[4-(2-hydroxyethoxy)phenyl]-6-[(3R)-3-hydroxypyrrolidin-1-yl]pyridin-2-yl}-sulfanyl)methyl]-N-methylbenzenecarboxamide] | 0.2 |
| – | – | CNC(=O)c1cc(CSc2nc(N)c(C#N)c(-c3ccc(F)c(C(F)(F)F)c3)c2C#N)ccn1 [Example 50] | 0.5 |
| – | – | CNC(=O)c1cc(CSc2nc(N3CC(O)C3)c(C#N)c(-c3ccc(F)c(F)c3)c2C#N)ccn1 [Example 74] | 2.4 |
| – | – | CS(=O)(=O)Nc1cccc(CSc2nc(N)c(C#N)c(-c3ccc(F)c(F)c3)c2C#N)c1 [Example 38] | 0.5 |
| 204 | – | N#Cc1c(N)nc(SCc2cccc(C(=O)NC[C@@H](O)CO)c2)c(C#N)c1-c1ccc(F)cc1 [Example 96, 3-({[6-Amino-3,5-dicyano-4-(4-fluorophenyl)pyridin-2-yl]sulfanyl}methyl)-N-[(2R)-2,3-dihydroxypropyl]benzenecarboxamide] | 0.4 |
| – | – | CNC(=O)c1cc(CSc2nc(N)c(C#N)c(-c3ccc(F)c(F)c3)c2C#N)ccn1 [Example 53] | 0.3 |
| – | – | CNC(=O)c1cc(COc2nc(N)c(C#N)c(-c3ccc(F)cc3)c2C#N)ccn1 [Example 21, 4-({[6-Amino-3,5-dicyano-4-(4-fluorophenyl)pyridin-2-yl]oxy}methyl)-N-methylpyridine-2-carboxamide] | 0.9 |

| Compound | EC50 (adenosine A2b receptor) [nM] | EC50 (adenosine A2a receptor) [nM] | EC50 (adenosine A1 receptor) [nM] |
| --- | --- | --- | --- |
| CNC(=O)c1cc(CSc2nc(N)c(C#N)c(-c3ccc(OC)cc3)c2C#N)ccn1 [Example 3] | – | 425 | 0.2 |
| N#Cc1c(SCc2ccnc(C(=O)NC3CC3)c2)nc(N2CCCC2)c(C#N)c1-c1ccccc1 [Example 85] | – | 1020 | 0.5 |
| CNC(=O)c1cc(CSc2nc(NCCO)c(C#N)c(-c3ccccn3)c2C#N)ccn1 [Example 88] | – | 1980 | 0.7 |
| CNC(=O)c1cc(CSc2nc(N3CC[C@@H](O)C3)c(C#N)c(-c3ccc4c(c3)OCCO4)c2C#N)ccn1 [Example 82] | – | 1980 | 0.2 |
| CNC(=O)c1cc(CSc2nc(N)c(C#N)c(-c3ccc(NC)cc3)c2C#N)ccn1 [Example 28] | – | 1640 | 0.4 |
| CS(=O)(=O)Nc1cccc(CSc2nc(N)c(C#N)c(-c3ccc(F)cc3)c2C#N)c1 [Example 37] | – | 1780 | 0.7 |
